ChEMBL document CHEMBL1201862, “PubChem BioAssay data set” (2004)
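All cell lines were grown in 96-well plates and treated with compound for 48 hours. Abbreviation: GI50, concentration required for 50% inhibition of growth.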 Calls of active or inactive are those of the source. No stated cut-off is given here; in the data, active = GI50 up to about 1.1 µM and inactive = higher.

Key:
Test in all cases: NCI tumour cell line growth inhibition, 48 h
[1] = system: KM12
[2] = system: NCI-H460
[3] = system: CCRF-CEM
[4] = system: Malme-3M
[5] = system: SK-MEL-2
[6] = system: SK-OV-3
[7] = system: M14
[8] = system: IGROV-1
[9] = system: MDA-MB-231
[10] = system: SN12C
[11] = system: HT-29
[12] = system: UACC-257
[13] = system: SF-295
[14] = system: OVCAR-5
[15] = system: MDA-N
[16] = system: SK-MEL-28
[17] = system: U-251
[18] = system: HCT-116
[19] = system: RPMI-8226
[20] = system: HCC 2998
[21] = system: LOX IMVI
[22] = system: HL-60
[23] = system: SK-MEL-5
[24] = system: NCI-H522
[25] = system: ACHN
[26] = system: DU-145
[27] = system: SNB-19
[28] = system: HOP-62
[29] = system: NCI/ADR-RES
[30] = system: OVCAR-4
[31] = system: HCT-15
[32] = system: 786-0
[33] = system: Hs-578T
[34] = system: UACC-62
[35] = system: SR
[36] = system: SW-620
[37] = system: PC-3
[38] = system: SNB-75
[39] = system: HOP-92
[40] = system: OVCAR-8
[41] = system: NCI-H226
[42] = system: MCF7
[43] = system: BT-549
[44] = system: A498
[45] = system: SF-268
[46] = system: TK-10
[47] = system: MDA-MB-435
[48] = system: UO-31
[49] = system: MOLT-4
[50] = system: K562
[51] = system: EKVX
[52] = system: RXF 393
[53] = system: CAKI-1
[54] = system: A549
[55] = system: NCI-H23
[56] = system: T47D
[57] = system: COLO 205
[58] = system: OVCAR-3
[59] = system: SF-539

Cc1ccc(/N=C2\C(=O)C3=C(OC(C)(C)CC3)c3ccccc32)cc1
GI50 [1]: 1.52 µM (inactive)
GI50 [2]: 1.58 µM (inactive)
GI50 [3]: 2.04 µM (inactive)
GI50 [4]: 0.352 µM (active)
GI50 [5]: 1.7 µM (inactive)
GI50 [6]: 1.57 µM (inactive)
GI50 [7]: 0.459 µM (active)
GI50 [8]: 0.703 µM (active)
GI50 [9]: 1.68 µM (inactive)
GI50 [10]: 0.505 µM (active)
GI50 [11]: 0.247 µM (active)
GI50 [12]: 0.748 µM (active)
GI50 [13]: 1.4 µM (inactive)
GI50 [14]: 1.51 µM (inactive)
GI50 [15]: 0.183 µM (active)
GI50 [16]: 1.21 µM (inactive)
GI50 [17]: 0.577 µM (active)
GI50 [18]: 0.292 µM (active)
GI50 [19]: 0.232 µM (active)
GI50 [20]: 1.77 µM (inactive)
GI50 [21]: 0.269 µM (active)
GI50 [22]: 0.227 µM (active)
GI50 [23]: 0.951 µM (active)
GI50 [24]: 1.25 µM (inactive)
GI50 [25]: 0.313 µM (active)
GI50 [26]: 1.31 µM (inactive)
GI50 [27]: 0.851 µM (active)
GI50 [28]: 0.542 µM (active)
GI50 [29]: 0.318 µM (active)
GI50 [30]: 0.986 µM (active)
GI50 [31]: 0.415 µM
GI50 [32]: 1.78 µM (inactive)
GI50 [33]: 2.82 µM (inactive)
GI50 [34]: 1.49 µM (inactive)
GI50 [35]: 0.275 µM (active)
GI50 [36]: 0.738 µM (active)
GI50 [37]: 1.22 µM (inactive)
GI50 [38]: 1.26 µM (inactive)
GI50 [39]: 1.77 µM (inactive)
GI50 [40]: 0.357 µM (active)
GI50 [41]: 2.86 µM (inactive)
GI50 [42]: 0.29 µM (active)
GI50 [43]: 1.33 µM (inactive)
GI50 [44]: 2.06 µM (inactive)
GI50 [45]: 1.53 µM (inactive)
GI50 [46]: 2.27 µM (inactive)
GI50 [47]: 0.183 µM (active)
GI50 [48]: 0.652 µM (active)
GI50 [49]: 0.729 µM (active)
GI50 [50]: 0.197 µM (active)
GI50 [51]: 1.81 µM (inactive)
GI50 [52]: 1.71 µM (inactive)
GI50 [53]: 1.71 µM (inactive)
GI50 [54]: 1.83 µM (inactive)
GI50 [55]: 1.08 µM (active)
GI50 [56]: 0.366 µM (active)
GI50 [57]: 1.69 µM (inactive)
GI50 [58]: 0.151 µM (active)

CC1(C=O)CC(CCc2ccccc2)NC1Cc1ccc(O)cc1 (stereo unspecified)
GI50 [1]: 18.2 µM (inactive)
GI50 [2]: 16.6 µM (inactive)
GI50 [3]: 20.2 µM (inactive)
GI50 [5]: 14.8 µM (inactive)
GI50 [6]: 17.4 µM (inactive)
GI50 [7]: 15.6 µM (inactive)
GI50 [8]: 14 µM (inactive)
GI50 [9]: 13.6 µM (inactive)
GI50 [10]: 16.9 µM (inactive)
GI50 [11]: 14.9 µM (inactive)
GI50 [12]: 15.1 µM (inactive)
GI50 [13]: 17.7 µM (inactive)
GI50 [14]: 17.4 µM (inactive)
GI50 [15]: 17.4 µM (inactive)
GI50 [16]: 22.1 µM (inactive)
GI50 [17]: 13.7 µM (inactive)
GI50 [18]: 15.6 µM (inactive)
GI50 [19]: 16.2 µM (inactive)
GI50 [20]: 11.6 µM (inactive)
GI50 [21]: 17 µM (inactive)
GI50 [22]: 12.6 µM (inactive)
GI50 [23]: 15.6 µM (inactive)
GI50 [24]: 19.4 µM (inactive)
GI50 [25]: 15.3 µM (inactive)
GI50 [26]: 17.5 µM (inactive)
GI50 [27]: 14.5 µM (inactive)
GI50 [28]: 18.6 µM (inactive)
GI50 [29]: 18.8 µM (inactive)
GI50 [30]: 14.2 µM (inactive)
GI50 [31]: 21.3 µM
GI50 [32]: 15.2 µM (inactive)
GI50 [33]: 19.5 µM (inactive)
GI50 [34]: 16.6 µM (inactive)
GI50 [35]: 12 µM (inactive)
GI50 [36]: 23.3 µM (inactive)
GI50 [37]: 13.8 µM (inactive)
GI50 [38]: 14.7 µM (inactive)
GI50 [39]: 15.3 µM (inactive)
GI50 [40]: 21 µM (inactive)
GI50 [41]: 15.5 µM (inactive)
GI50 [42]: 14.1 µM (inactive)
GI50 [43]: 22.9 µM (inactive)
GI50 [44]: 14.6 µM (inactive)
GI50 [45]: 16.6 µM (inactive)
GI50 [46]: 17.3 µM (inactive)
GI50 [47]: 17.4 µM (inactive)
GI50 [48]: 14.5 µM (inactive)
GI50 [49]: 14.1 µM (inactive)
GI50 [50]: 16.7 µM (inactive)
GI50 [51]: 15.2 µM (inactive)
GI50 [59]: 15.3 µM (inactive)
GI50 [52]: 15.7 µM (inactive)
GI50 [53]: 14.8 µM (inactive)
GI50 [54]: 15.4 µM (inactive)
GI50 [55]: 23 µM (inactive)
GI50 [56]: 15.8 µM (inactive)
GI50 [57]: 10.6 µM (inactive)
GI50 [58]: 17 µM (inactive)
